Measurements reported in ChEMBL document CHEMBL3085630, “Thienopyrimidine bisphosphonate (ThPBP) inhibitors of the human farnesyl pyrophosphate synthase: optimization and characterization of the mode of inhibition” (J Med Chem, 2013).
Activity calls are given as the source filed them. The rule behind the calls is not given here.

Tests used:
[1] = molecular target: T1, Farnesyl pyrophosphate synthase (Homo sapiens, UniProt P14324); assay: Inhibition of human recombinant FPPS using GPP/[3H]IPP as substrate incubated for 10 mins prior to substrate addition by scintillation counting analysis
T1 sequence (P14324 whole entry): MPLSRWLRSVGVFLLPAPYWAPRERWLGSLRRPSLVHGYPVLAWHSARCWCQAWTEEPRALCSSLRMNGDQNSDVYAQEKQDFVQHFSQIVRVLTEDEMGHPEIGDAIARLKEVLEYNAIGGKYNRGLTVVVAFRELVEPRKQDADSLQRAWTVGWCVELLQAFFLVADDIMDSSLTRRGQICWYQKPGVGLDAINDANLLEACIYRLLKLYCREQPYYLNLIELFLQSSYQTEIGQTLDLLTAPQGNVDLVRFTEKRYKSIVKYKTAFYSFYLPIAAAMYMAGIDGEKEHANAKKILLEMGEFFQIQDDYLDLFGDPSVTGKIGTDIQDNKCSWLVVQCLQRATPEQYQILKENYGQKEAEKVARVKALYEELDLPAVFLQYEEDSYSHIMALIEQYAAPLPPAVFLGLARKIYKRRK

[2] = molecular target: T1, Farnesyl pyrophosphate synthase; assay: Inhibition of human recombinant FPPS using GPP/[3H]IPP as substrate incubated for 10 mins prior to substrate addition measured after 8 mins by scintillation counting analysis
[3] = test system: Hydroxyapatite; assay: Binding affinity to bone mineral hydroxyapatite at 50 uM after 5 mins by NMR-spectroscopic analysis
[4] = molecular target: T2, Farnesyl pyrophosphate synthase (Homo sapiens) (UniProt P14324); assay: Inhibition of human recombinant FPPS using GPP/[3H]IPP as substrate at 100 nM incubated for 10 mins prior to substrate addition measured after 8 mins by scintillation counting analysis
T2 sequence (whole entry): T1 sequence (P14324 whole entry)

| SMILES | Activity [3] | inhibition [4] [%] | other results |
| --- | --- | --- | --- |
| O=P(O)(O)C(Nc1ncnc2sc(-c3ccc(C4CC4)cc3)cc12)P(=O)(O)O | Active |  | IC50 [1]: 115 nM; IC50 [2]: 39 nM |
| O=P(O)(O)C(Nc1ncnc2sc(-c3ccc(C4CC4(F)F)cc3)cc12)P(=O)(O)O (centres undefined) |  |  | IC50 [1]: 140 nM |
| Cc1noc(C)c1-c1cc2c(NC(P(=O)(O)O)P(=O)(O)O)ncnc2s1 |  | < 20 |  |
| CC(C)Oc1ccc(-c2cc3c(NC(P(=O)(O)O)P(=O)(O)O)ncnc3s2)cc1 |  |  | IC50 [2]: 200 nM |
| O=P(O)(O)C(Nc1ncnc2sc(-c3cccc4[nH]ncc34)cc12)P(=O)(O)O |  | < 20 |  |
| O=P(O)(O)C(Nc1ncnc2sc(-c3ccc(OC4CC4)cc3)cc12)P(=O)(O)O | Active |  |  |
| O=P(O)(O)C(O)(Cc1cccnc1)P(=O)(O)O | Active |  |  |
| O=P(O)(O)C(Nc1ncnc2sc(-c3cccc(C(F)(F)F)c3)cc12)P(=O)(O)O |  | 30 |  |
| COc1ccc(-c2cc3c(NC(P(=O)(O)O)P(=O)(O)O)ncnc3s2)cc1 |  |  | IC50 [1]: 440 nM |
| O=P(O)(O)C(Nc1ncnc2sc(-c3ccc4[nH]ncc4c3)cc12)P(=O)(O)O |  | < 20 |  |
| O=P(O)(O)C(Nc1ncnc2sc(-c3ccc(C(F)(F)F)cc3)cc12)P(=O)(O)O | Active | 73 |  |
